Strand notation (5' to 3'): a small letter for the sugar, then the base; units joined by * are phosphorothioate-linked, units joined directly phosphodiester-linked; [ ] holds rarer units or linkages, { } end groups; capitals alone tell only the bases. d = 2'-deoxy (DNA); m = 2'-O-methyl; f = 2'-fluoro

Results on 13 substances are retold here after patent US9976141B2, “Compositions and methods for inhibiting gene expression of Hif2alpha” (Arrowhead Madison Inc., priority 2015, dated 2018).

The subject of the data set is human EPAS1 (Hif2α) cDNA in psiCHECK2 (Renilla luciferase/EPAS1 fusion mRNA) in Hep3B cells. Nature of the data set: Efficacy screen of Hif2α RNAi triggers in vitro, dual-luciferase reporter assay (1 nM and 0.1 nM). The data set is classed as cell-based. Conditions: Hep3B cells co-transfected with EPAS1-psiCHECK2, Renilla luciferase normalized to firefly luciferase. An excerpt: Candidate sequences were identified by in silico analysis and screened as chemically modified canonical siRNAs in vitro. For screening purposes, the human EPAS1 (Hif2α) cDNA sequence (accession #NM 001430) was synthesized and cloned (DNA 2.0, Menlo Park, Calif.) into a commercially-available reporter-based screening plasmid, psiCHECK2 (Promega, Madison, Wis.) which generated a Renilla luciferase/EPAS1 fusion mRNA. For RNAi trigger efficacy evaluation, Hep3B cells, a human hepatocellular carcinoma line, were plated at 10,000 cells per well in 96-well format. Each of the 187 EPAS1 RNAi triggers, in two subsets, was co-transfected at two concentrations, 1 nM and 0.1 nM, with 25 ng EPAS1-psiCHECK2 plasmid DNA per well and 0.2 μL LipoFectamine 2000 (Life Technologies) per well. Gene knockdown was determined by measuring Renilla luciferase levels normalized to the levels of constitutively-expressed firefly luciferase, also present on the psiCHECK-2 plasmid, using the Dual Luciferase Reporter Assay (Promega, Madison, Wis.) Table 5.

With “2235 (sense fGmAfCmUfCmCfCmAfGmCfAmUfUmCfGmAfGmCfAdT; antisense dTfGmCfUmCfGmAfAmUfGmCfUmGfGmGfAmGfUmCdT*dT; siRNA) [compound 2235]”, the “Relative Rluc-Hif2α” value is, setting by setting: (0.1 nM RNAi trigger) 0.743 ± 0.129; (1 nM RNAi trigger) 0.857 ± 0.090.

As for “2340 (sense fGmUfCmAfAmCfUmCfCmAfAmCfGmUfAmUfGmUfAdT; antisense dTfAmCfAmUfAmCfGmUfUmGfGmAfGmUfUmGfAmCdT*dT; siRNA) [compound 2340]”, the “Relative Rluc-Hif2α” value is reported as 0.920 ± 0.114 (0.1 nM RNAi trigger) and 0.444 ± 0.039 (1 nM RNAi trigger).

As for “2361 (sense fGmGfAmGfCmAfCmUfGmCfGmCfGmCfUmAfUmCfAdT; antisense dTfGmAfUmAfGmCfGmCfGmCfAmGfUmGfCmUfCmCdT*dT; siRNA) [compound 2361]”, the “Relative Rluc-Hif2α” value runs as follows: (0.1 nM RNAi trigger) 0.800 ± 0.198; (1 nM RNAi trigger) 0.603 ± 0.133.

Regarding “2250 (sense fUmCfUmUfUmGfAmCfUmUfCmAfCmUfCmAfUmCfAdT; antisense dTfGmAfUmGfAmGfUmGfAmAfGmUfCmAfAmAfGmAdT*dT; siRNA) [compound 2250]”, the “Relative Rluc-Hif2α” value runs as follows: (0.1 nM RNAi trigger) 0.255 ± 0.020; (1 nM RNAi trigger) 0.139 ± 0.046.

Turning to “2328 (sense fGmCfAmUfGmGfCmAfAmGfCmCfGmGfCmUfGmCfAdT; antisense dTfGmCfAmGfCmCfGmGfCmUfUmGfCmCfAmUfGmCdT*dT; siRNA) [compound 2328]”, the “Relative Rluc-Hif2α” value runs as follows: (0.1 nM RNAi trigger) 1.291 ± 0.109; (1 nM RNAi trigger) 1.192 ± 0.144.

As to “2385 (sense fUmGfGmUfUmUfUmUfCmAfAmUfAmCfCmAfAmUfAdT; antisense dTfAmUfUmGfGmUfAmUfUmGfAmAfAmAfAmCfCmAdT*dT; siRNA) [compound 2385]”, the “Relative Rluc-Hif2α” value (0.1 nM RNAi trigger) worked out at 0.701 ± 0.178 and the “Relative Rluc-Hif2α” value (1 nM RNAi trigger) is listed as 0.515 ± 0.089.

As to “2315 (sense fGmGfCmUfCmGfAmGfGmCfCmCfAmGfAmCfGmUfAdT; antisense dTfAmCfGmUfCmUfGmGfGmCfCmUfCmGfAmGfCmCdT*dT; siRNA) [compound 2315]”, the “Relative Rluc-Hif2α” value is, setting by setting: (0.1 nM RNAi trigger) 0.781 ± 0.206; (1 nM RNAi trigger) 0.876 ± 0.099.

“2255 (sense fGmAfCmAfUmGfUmCfCmAfCmAfGmAfGmCfGmGfAdT; antisense dTfCmCfGmCfUmCfUmGfUmGfGmAfCmAfUmGfUmCdT*dT; siRNA) [compound 2255]”: the “Relative Rluc-Hif2α” value was found to be 0.653 ± 0.130 (0.1 nM RNAi trigger) and 0.721 ± 0.055 (1 nM RNAi trigger).

On to “2414 (sense fUmAfAmCfUmGfUmAfUmGfGmGfAmGfCmUfUmAfAdT; antisense dTfUmAfAmGfCmUfCmCfCmAfUmAfCmAfGmUfUmAdT*dT; siRNA) [compound 2414]”, for which the “Relative Rluc-Hif2α” value is, setting by setting: (0.1 nM RNAi trigger) 0.422 ± 0.070; (1 nM RNAi trigger) 0.167 ± 0.038.

As to “2380 (sense fCmCfAmAfGmCfUmCfAmCfGmAfCmCfUmUfGmGfAdT; antisense dTfCmCfAmAfGmGfUmCfGmUfGmAfGmCfUmUfGmGdT*dT; siRNA) [compound 2380]”, the “Relative Rluc-Hif2α” value is, setting by setting: (0.1 nM RNAi trigger) 1.128 ± 0.285; (1 nM RNAi trigger) 1.722 ± 0.101.

On to “2253 (sense fUmUfCmGfUmGfAmGfAmAfCmCfUmGfAmGfUmCfAdT; antisense dTfGmAfCmUfCmAfGmGfUmUfCmUfCmAfCmGfAmAdT*dT; siRNA) [compound 2253]”, for which the “Relative Rluc-Hif2α” value came to 0.646 ± 0.144 (0.1 nM RNAi trigger) and 0.564 ± 0.043 (1 nM RNAi trigger).

“2262 (sense fUmCfCmUfCmAfCmAfAmUfAmGfUmCfUmGfUmGfAdT; antisense dTfCmAfCmAfGmAfCmUfAmUfUmGfUmGfAmGfGmAdT*dT; siRNA) [compound 2262]”: the “Relative Rluc-Hif2α” value reads like this: (0.1 nM RNAi trigger) 0.755 ± 0.031; (1 nM RNAi trigger) 0.277 ± 0.071.

With “2395 (sense fUmAfUmUfAmAfCmCfCmUfAmCfCmUfGmUfCmAfAdT; antisense dTfUmGfAmCfAmGfGmUfAmGfGmGfUmUfAmAfUmAdT*dT; siRNA) [compound 2395]”, the “Relative Rluc-Hif2α” value (0.1 nM RNAi trigger) is on record as 0.494 ± 0.104 and the “Relative Rluc-Hif2α” value (1 nM RNAi trigger) was 0.218 ± 0.029.
